{
  "source": "patent US12319696B2",
  "about": "“2,6-dimethyl-n-((pyridin-4-yl)methyl)imidazo[1,2-b]pyridazin-8-amine and 2,5-dimethyl-n-[(pyridin-4-yl)methyl]pyrazolo[1,5-a]pyrimidin-7-amine derivatives for treating viral infections” (CUROVIR AB, priority 2018, dated 2025)",
  "key": {"[1]": {"conditions": "mice; cited from earlier work"}, "[2]": {"assay": "in vivo", "parameters": "species or system Sprague Dawley rats", "conditions": "male, Sprague Dawley, rat, po, 10 mg/kg", "protocol": "10 mg of the compound was weighed and transferred to graduated tube. Then 500 μL of DMA (5% v/v) was added, vortex mixed thoroughly and sonicated till test item was completely dissolved. Then 5 mL of PEG 200 (50% v/v) were added, and vortex mixed thoroughly. Thereafter, Sterile Water for Injection (SWFI) was added in small increments and vortex mixed thoroughly. Finally, the volume was made up to 10 mL with SWFI (45% v/v) to obtain a clear solution with final formulation strength of 1 mg/mL. […] Formulation was freshly prepared before the administration to animals. Adult healthy male Sprague Dawley rats aged 8-10 weeks were used for experimentation after a minimum 3 days of acclimation. Fasted animals were administered with test compound in recommended vehicle (5% DMA+50% PEG 200+45% SWFI) by oral route at a dose of 10 mg/kg body weight and at dose volume of 10 mL/kg body weight. Under mild isoflurane anesthesia, blood specimens were collected into pre-labeled tubes containing anticoagulant (K2EDTA—2 mg/mL blood) at different time points post dose."}, "[3]": {"test_system": "coxsackie B virus strain 1", "assay": "Antiviral CPE inhibition assay in mammalian cell culture, Cox B1", "assay_type": "cell-based"}, "[4]": {"test_system": "coxsackie B virus strain 5", "assay": "Antiviral CPE inhibition assay in mammalian cell culture, Cox B5", "assay_type": "cell-based"}, "[5]": {"test_system": "coxsackie B virus strain 3", "assay": "Antiviral CPE inhibition assay in mammalian cell culture, Cox B3", "assay_type": "cell-based"}, "[6]": {"assay": "Human plasma protein binding (Rapid Equilibrium Dialysis)", "assay_type": "in vitro ADME", "conditions": "pH 7.4, RED device, 37° C.", "protocol": "(§1) Plasma protein binding study was performed using a Rapid Equilibrium Dialysis (RED) device containing dialysis membrane with a molecular weight cut-off of 8,000 Daltons. Each dialysis insert contained two chambers. The red chamber was for the plasma while the white chamber was for the buffer. Test items and Control items (Warfarin and Propranolol) were prepared at a required test concentration of 10 μM in Human/Rat plasma (pH adjusted to 7.40) using 10 mM DMSO stocks (final DMSO concentration was 0.1%). 300 μL of plasma sample was added into the sample chamber. 500 μL of buffer was added into the buffer chamber. After sealing the RED device with an adhesive film, incubation was done at 37° C. with shaking at 300 rpm for 4 h. Following incubation, an aliquot of 50 μL was removed from each well (plasma and buffer side) and diluted with equal volume of opposite matrix to nullify the matrix effect and subjected for sample extraction.\n(§2) All samples were extracted by Protein Precipitation method by adding 200 μL of ice cold Acetonitrile and 50 μL of internal standard (Haloperidol at 0.1 μg/mL) solution. The tubes were vortex mixed thoroughly and centrifuged at 10000 rpm, 4° C. for 10 minutes. A clear supernatant of 200 μL of samples were submitted for LC-MS/MS analysis."}, "[7]": {"test_system": "enterovirus strain 6", "assay": "microbe, parasite or virus in culture", "assay_type": "cell-based", "conditions": "inhibition of viral CPE"}, "[8]": {"test_system": "enterovirus D68", "assay": "Antiviral CPE inhibition assay in mammalian cell culture, EV-D68", "assay_type": "cell-based", "conditions": "Enterovirus D, EVD68, inhibition of viral CPE"}, "[9]": {"test_system": "polio virus strain 1", "assay": "organism not typed", "assay_type": "cell-based"}, "[10]": {"test_system": "coxsackie B virus strain 2", "assay": "Antiviral CPE inhibition assay in mammalian cell culture, Cox B2", "assay_type": "cell-based"}, "[11]": {"test_system": "enterovirus strain 30", "assay": "Antiviral CPE inhibition assay in mammalian cell culture, EV30", "assay_type": "cell-based", "conditions": "inhibition of viral CPE"}, "[12]": {"assay": "Metabolic stability in human liver microsomes", "assay_type": "in vitro ADME", "conditions": "5 μM test item, 0.25 mg/mL microsomal protein", "protocol": "(§3) Metabolic stability assay was carried out using Human/Rat liver microsomes. […] Test item/Control items were incubated with Human/Rat liver microsomes with cofactors and without cofactors. The reaction mixture (100 μL) was removed at specified time period and the reaction was stopped by addition of stop solution. The samples were extracted in presence of internal standard and were analyzed using LC-MS/MS. The percent of the test/Control item remaining after specified incubation period was calculated with respect to the peak area ratio at time 0 min. […] The reaction mixture was incubated further at 37° C. for specified incubation time points (With Cofactors: 0, 15, 30, 60 and 120 min; Without Cofactors: 0 and 120 min). 100 μL incubation samples of test items and Control items at specified incubation time points were transferred to respective tubes for sample extraction. Test and Control item specimens were extracted by Protein precipitation method. A 100 μL incubation sample at each time point was added to tubes containing 200 μL of ice-cold acetonitrile and 50 μL Haloperidol solution (0.5 μg/mL). Then the tubes were vortex mixed thoroughly and centrifuged at 10000 rpm for 10 minutes at 4° C. A clear supernatant of 200 μL of samples were submitted for LC-MS/MS analysis."}, "[13]": {"assay": "Rat plasma protein binding (Rapid Equilibrium Dialysis)", "assay_type": "in vitro ADME", "conditions": "pH 7.4, RED device, 37° C.", "protocol": "as §1, §2"}, "[14]": {"target": "T1, CYP3A4 (Homo sapiens, UniProt P08684)", "T1 construct": "from tissue; host or cells: human liver microsomes", "T1 sequence (P08684 whole entry)": "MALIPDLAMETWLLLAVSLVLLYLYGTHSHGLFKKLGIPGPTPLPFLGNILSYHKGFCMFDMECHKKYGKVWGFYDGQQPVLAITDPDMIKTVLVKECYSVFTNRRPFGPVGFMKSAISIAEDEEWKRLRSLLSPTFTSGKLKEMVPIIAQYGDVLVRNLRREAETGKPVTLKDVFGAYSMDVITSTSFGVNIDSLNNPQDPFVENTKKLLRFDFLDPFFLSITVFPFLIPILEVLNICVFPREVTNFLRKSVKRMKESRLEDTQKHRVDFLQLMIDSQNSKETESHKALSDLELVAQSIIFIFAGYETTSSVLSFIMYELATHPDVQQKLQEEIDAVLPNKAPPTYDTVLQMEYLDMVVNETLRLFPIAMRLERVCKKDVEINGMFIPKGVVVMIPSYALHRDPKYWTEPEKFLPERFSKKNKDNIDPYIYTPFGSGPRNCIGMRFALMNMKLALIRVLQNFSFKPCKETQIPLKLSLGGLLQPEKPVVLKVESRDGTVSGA", "assay": "In vitro CYP 3A4 enzyme inhibition in human liver microsomes by probe substrate method", "assay_type": "in vitro ADME", "conditions": "human liver microsomes 0.5 mg/mL; probe substrate Midazolam 5 μM", "protocol": "In Vitro CYP 3A4 Enzyme Inhibition Study in Human Liver Microsomes by Probe Substrate Method\nIn vitro CYP3A4 enzyme inhibition assay was performed using Human liver microsomes at 0.5 mg/mL concentration. Ketoconazole was used as reference inhibitor and Midazolam was used as selective probe substrate for CYP 3A4 enzyme. Serial dilution of test/control items was prepared in potassium phosphate buffer (50 mM, pH 7.40) to obtain eight concentrations each in a 1:4 dilution pattern. The percentage of acetonitrile/DMSO was maintained at 2.5%/0.25% in 2.5× serially diluted control/test item solutions respectively. The final percentage of acetonitrile/DMSO was 1%/0.1% respectively. Intermediate solutions such as 10× working solution (5 mg/mL) of Human liver microsomal solution, 10× concentration of reference probe substrates in buffer, 5× concentrations of Cofactors (5.0 mM NADP+, 25.0 mM G-6-P, 3.0 IU/mL G-6-PDH and 10.0 mM MgCl2) were prepared in potassium phosphate buffer. The final concentration of liver microsomes in the reaction mixture was 0.5 mg/mL, cofactors was 1.0 mM NADP+, 5.0 mM G-6-P, 0.6 IU/mL G-6-PDH and 2.0 mM MgCl2. Midazolam was tested at 5 μM test concentration. 40 μL of 2.5× serially diluted test/control item solutions and 10 μL of […] liver microsomal solution were added to 96 well plate and incubated for 10 min at 37° C. with shaking condition (400 rpm) using Thermomixer. After pre incubation, 20 μL of potassium phosphate buffer, 10 μL of respective probe substrate working solution and 20 μL of cofactor mix was added."}, "[15]": {"assay": "Metabolic stability in rat liver microsomes", "assay_type": "in vitro ADME", "conditions": "5 μM test item, 0.25 mg/mL microsomal protein", "protocol": "as §3"}, "[16]": {"test_system": "enterovirus strain 71", "assay": "Antiviral CPE inhibition assay in mammalian cell culture, EV71", "assay_type": "cell-based", "conditions": "inhibition of viral CPE"}},
  "data": [
    {"smiles": "COc1ccc(-c2c(C)nn3c(NCCN4CCOCC4)cc(C)nc23)cc1OC", "note": "[T-00127-HEV1, 3-(3,4-dimethoxyphenyl)-2,5-dimethyl-N-(2-morpholinoethyl)pyrazolo[1,5-a]pyrimidin-7-amine]", "values": [
      {"measurement": "mortality when tested in-vivo", "setting": "[1]", "result": "induced mortality in mice"}
    ]},
    {"smiles": "Cc1cc(NCc2ccncc2)n2nc(C)c(-c3ccc4c(c3)c(C)nn4C)c2n1", "note": "[Comp. Y, 3-(1,3-dimethyl-1H-indazol-5-yl)-2,5-dimethyl-N-[(pyridin-4-yl)methyl]pyrazolo[1,5-a]pyrimidin-7-amine, reference compound]", "values": [
      {"measurement": "AUC(0-inf)", "setting": "[2]", "result": "15500 ± 1900", "unit": "ng·h/mL"},
      {"measurement": "AUC(0-t)", "setting": "[2]", "result": "14800 ± 2600", "unit": "ng·h/mL"},
      {"measurement": "AUCextrap", "setting": "[2]", "result": "4.6 ± 5.6", "unit": "%"},
      {"measurement": "Cmax", "setting": "[2]", "result": "2300 ± 300", "unit": "ng/mL"},
      {"measurement": "MRT last", "setting": "[2]", "result": "4.4 ± 1.1", "unit": "h"},
      {"measurement": "Tmax", "setting": "[2]", "result": "1.2 ± 0.8", "unit": "h"},
      {"measurement": "half-life", "setting": "[2]", "result": "3.4 ± 1.2", "unit": "h"},
      {"measurement": "inhibition at 0.01 µM", "setting": "[3]; read-out: Inh. at 10 nM, Cox B1", "result": 100, "unit": "%"},
      {"measurement": "inhibition at 0.1 µM", "setting": "[3]; read-out: Inh. at 100 nM, Cox B1", "result": 100, "unit": "%"},
      {"measurement": "inhibition at 0.01 µM", "setting": "[4]; read-out: Inh. at 10 nM, Cox B5", "result": 85, "unit": "%"},
      {"measurement": "inhibition at 0.1 µM", "setting": "[4]; read-out: Inh. at 100 nM, Cox B5", "result": 100, "unit": "%"},
      {"measurement": "inhibition at 0.01 µM", "setting": "[5]; read-out: Inh. at 10 nM, Cox B3", "result": 100, "unit": "%"},
      {"measurement": "inhibition at 0.1 µM", "setting": "[5]; read-out: Inh. at 100 nM, Cox B3", "result": 100, "unit": "%"},
      {"measurement": "fraction unbound at 4 h, 10 μM", "setting": "[6]", "result": 0.027},
      {"measurement": "inhibition at 0.01 µM", "setting": "[7]; 10 nM, read-out: Inh. at 10 nM, EV6", "result": 100, "unit": "%"},
      {"measurement": "inhibition at 0.1 µM", "setting": "[7]; 100 nM, read-out: Inh. at 100 nM, EV6", "result": 100, "unit": "%"},
      {"measurement": "inhibition at 0.01 µM", "setting": "[8]; 10 nM, read-out: Inh. at 10 nM, EV-D68", "result": 85, "unit": "%"},
      {"measurement": "inhibition at 0.1 µM", "setting": "[8]; 100 nM, read-out: Inh. at 100 nM, EV-D68", "result": 80, "unit": "%"},
      {"measurement": "inhibition at 0.01 µM", "setting": "[9]; read-out: Inh. at 10 nM, Polio 1", "result": 100, "unit": "%"},
      {"measurement": "inhibition at 0.1 µM", "setting": "[9]; read-out: Inh. at 100 nM, Polio 1", "result": 100, "unit": "%"},
      {"measurement": "inhibition at 0.01 µM", "setting": "[10]; read-out: Inh. at 10 nM, Cox B2", "result": 100, "unit": "%"},
      {"measurement": "inhibition at 0.1 µM", "setting": "[10]; read-out: Inh. at 100 nM, Cox B2", "result": 100, "unit": "%"},
      {"measurement": "inhibition at 0.01 µM", "setting": "[11]; 10 nM, read-out: Inh. at 10 nM, EV30", "result": 100, "unit": "%"},
      {"measurement": "inhibition at 0.1 µM", "setting": "[11]; 100 nM, read-out: Inh. at 100 nM, EV30", "result": 100, "unit": "%"},
      {"measurement": "% remaining after incubation for 60 min, Human microsomes", "setting": "[12]", "result": 86.2, "unit": "%"},
      {"measurement": "fraction unbound at 4 h, 10 μM", "setting": "[13]", "result": 0.024},
      {"measurement": "IC50", "setting": "[14]", "result": 280, "unit": "nM"},
      {"measurement": "% remaining after incubation for 60 min, Rat microsomes", "setting": "[15]", "result": 89.7, "unit": "%"},
      {"measurement": "inhibition at 0.01 µM", "setting": "[16]; 10 nM, read-out: Inh. at 10 nM, EV71", "result": 87, "unit": "%"},
      {"measurement": "inhibition at 0.1 µM", "setting": "[16]; 100 nM, read-out: Inh. at 100 nM, EV71", "result": 86, "unit": "%"}
    ]}
  ]
}
